The values that follow come from patent publication US20080234362A1, “Treatment for Asthma and Arthritis and Other Inflammatory Diseases” (BIONOVATE LIMITED, priority 2004, published 2008).

Entries after “also recorded” stand apart in the source; their conditions may differ. Where two headings read alike, the source gives them in different places.

The subject of one test is mast cells. To be noted: cited from earlier work; for IC50: read-out: IC50 (μM) degranulation of mast cells; for ranking of activity in the anti-allergy model: mast cell degranulation.
The test system of test [1] is antigen-induced bronchoconstriction and airway hyper-reactivity. Conditions: oral, before and after sensitisation; ovalbumin; cited from earlier work.
The subject of test [2] is histamine, TNFα and IL-1B induced by IgE. Conditions: mouse and rat model; cited from earlier work.
In the next test the test system is TNFα. Conditions: cited from earlier work.
Test [3] deals with Recurrent airway obstruction (RAO). The experiment in a line: double-blind placebo controlled clinical trial on recurrent airway obstruction in horses. Type of test: in vivo. To be noted: horses with RAO. From the text:
A Double-Blind Placebo Controlled Clinical Trial comparing the Efficacy of the Green Lipped Mussel Lipid Extract and Flavonoid alone and in Combination on Recurrent Airway Obstruction in Horses.
Recurrent airway obstruction (RAO), an equine asthma, is a chronic inflammatory disease of the airways typified by bronchoconstriction, wheezing and increased mucous production and caused by allergy to fungal and other dusts but mediated, in part, by leukotrienes and other lipid mediators. […] Studies included clinical status, exercise recovery, breath condensate, broncho-alveolar lavage, cytology and mucous scorings.
Eight horses aged 9-21 with RAO symptoms and cytology consistent with the accepted definition of RAO were recruited.
The study was a double blind randomized, placebo controlled trial. […]
Subjects were clinically and endoscopically examined and BAL and condensate collected and frozen in liquid nitrogen every two weeks. […] The BAL cytology was scored by neutrophil count. Mucous was scored by location, type, volume and viscosity. […]
The clinical assessments scores were assessed as a mean clinical RAO score. The clinical assessments were evaluated on a scale of 1-10 where 1 was severe disease symptomology and 10 indicated a disease-free condition score and the results are shown in Table 1 and FIG. 3. […]

For a further test, the system named is TPA-induced ear oedema. Conditions: cited from earlier work.
For test [4] the following is noted: in vitro; cited from earlier work.
A further test relates to LTB4 production. Conditions: 9 g/day; cited from earlier work.

Turning to `COc1ccc(-c2cc(=O)c3c(O)cc(O[C@@H]4O[C@H](CO[C@@H]5O[C@@H](C)[C@H](O)[C@@H](O)[C@H]5O)[C@@H](O)[C@H](O)[C@H]4O)cc3o2)cc1O` [Diosmin], the IC50 with mast cells was greater than 100 µM.

As to `O=c1cc(-c2ccccc2)oc2ccc(O)cc12` [6-hydroxyflavone], in the test on mast cells, the IC50 was 28 µM.

For `O=c1cc(-c2ccccc2)oc2cc(O)cc(O)c12` [Chrysin], the 50% inhibitory concentration (IC50) with mast cells was greater than 100 µM.

With `COc1ccc(-c2cc(=O)c3c(O)cc(O)cc3o2)cc1O` [Diosmetin], the “ranking of activity in the anti-allergy model” value (“ranking of activity” for short) in the test with mast cells is on record as “most active”.

Turning to `O=c1cc(-c2ccc(O)c(O)c2)oc2cc(O)cc(O)c12` [Luteolin], the “antigen-induced bronchoconstriction and airway hyper-reactivity” value in test [1] was “significantly reduced”. Besides, the “potency on IgE-induced histamine, TNFα and IL-1B production versus other agents” value in test [2] was “more potent than many other agents”. In the test with mast cells, the “ranking of activity” value is “most potent” and the IC50 is 1.8 µM. Besides, the “ranking of activity” value with mast cells (listed as luteolin) is given as “most active”. Moreover, in the test with TNFα, the “oral in vivo anti-TNFα activity” value was “potent; also recorded: more potent than apigenin; also recorded: inhibited”. Further, the “Mean clinical RAO score” value in test [3] (4 capsules per day, 28 days, scale 1-10, 1 severe, 10 disease-free) is listed as 3.38^ade. In addition, in test [3] (versus placebo), the “improvement of respiratory function” value was “significantly (P<0.001) improved”. Besides, the “oral anti-inflammatory activity, TPA ear oedema” value with TPA-induced ear oedema is reported as “effective”.

Regarding `O=c1c(O)c(-c2ccc(O)cc2O)oc2cc(O)cc(O)c12` [Morin], in the test on mast cells, the IC50 was 51 µM.

With `O=c1c(O)c(-c2ccccc2)oc2cc(O)cc(O)c12` [Galangin], the IC50 in the test on mast cells was 40 µM.

On to `O=c1cc(-c2ccccc2)oc2cc(O)ccc12` [7-hydroxyflavone], for which, in the test with mast cells, the IC50 was 21 µM.

Consider `O=c1c(O)c(-c2ccccc2)oc2ccc(O)cc12` [3,6-dihydroxyflavone], for which the half-inhibitory concentration (IC50) in the test with mast cells was 6 µM.

As to `O=c1cc(-c2ccccc2)oc2cc(O)c(O)c(O)c12` [Baicalein], the “potency on IgE-induced histamine, TNFα and IL-1B production versus other agents” value in test [2] was “more potent than many other agents”. Besides, the IC50 in the test on mast cells is 17 µM.

Take `O=c1cc(-c2ccccc2)oc2ccccc12` [Flavone]: in the test on mast cells, the 50% inhibitory concentration (IC50) is greater than 100 µM.

Regarding `O=c1c(O)c(-c2cc(O)c(O)c(O)c2)oc2cc(O)cc(O)c12` [Myricetin], in the test with mast cells, the IC50 is 6.7 µM. Also, the “antioxidant efficiency versus traditional vitamins” value in test [4] is on record as “more efficient antioxidants than traditional vitamins”.

`CC/C=C\C/C=C\C/C=C\CCCCCCCC(=O)O` [a-LNA, a-linolenic acid]: the “LTB4 production and pulmonary function” value in the test with LTB4 production is “inhibit LTB4 production and improve pulmonary function”.

`O=c1c(O)c(-c2ccc(O)cc2)oc2cc(O)cc(O)c12` [Kaempferol]: the IC50 with mast cells was 7.5 µM.

For `O=c1c(O)c(-c2ccccc2)oc2ccccc12` [3-hydroxyflavone], the IC50 in the test with mast cells was greater than 100 µM.

For the molecule `O=c1c(O)c(-c2ccc(O)c(O)c2)oc2cc(O)ccc12` [Fisetin], in the test with mast cells, the “ranking of activity” value is “most active” and the IC50 was 3.3 µM.

Consider `O=c1cc(-c2ccc(O)cc2)oc2cc(O)cc(O)c12` [Apigenin], for which, in the test with mast cells, the “ranking of activity” value was “most active” and the IC50 is 4.5 µM. In the test on TNFα, the “oral in vivo anti-TNFα activity” value is reported as “potent”.

For `O=c1c(O)c(-c2ccc(O)c(O)c2)oc2cc(O)cc(O)c12` [Quercetin], the “potency on IgE-induced histamine, TNFα and IL-1B production versus other agents” value in test [2] is on record as “more potent than many other agents”. In the test on mast cells, the “ranking of activity” value was “most active” and the IC50 was 3 µM. In addition, the “oral anti-inflammatory activity, TPA ear oedema” value in the test on TPA-induced ear oedema is on record as “effective”. Further, the “antioxidant efficiency versus traditional vitamins” value in test [4] is “more efficient antioxidants than traditional vitamins”.
